Measured values published in article PMC4533898 (Biochemistry, 2015).

How the values were obtained:
[1] = molecular target: Progesterone receptor membrane component 1 (hPGRMC1) (Homo sapiens, UniProt O00264, Y164F); assay: UV-vis spectroscopy; assay type: binding
[2] = molecular target: Progesterone receptor membrane component 1 (hPGRMC1) (Homo sapiens, UniProt O00264, Y164H); assay: UV-vis; assay type: binding
Progesterone receptor membrane component 1 (hPGRMC1) (Homo sapiens, UniProt O00264, Y164H), sequence (O00264 71-195 Y164H): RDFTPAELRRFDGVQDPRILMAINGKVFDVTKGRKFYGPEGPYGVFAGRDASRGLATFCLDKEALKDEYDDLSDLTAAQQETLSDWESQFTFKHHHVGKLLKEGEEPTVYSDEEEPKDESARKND

Progesterone receptor membrane component 1 (hPGRMC1) (Homo sapiens, UniProt O00264, Y164F), sequence (O00264 71-195 Y164F): as the sequence (O00264 71-195 Y164H) above, with H94F counted along it

heme
% of WT heme binding [1]: ~ 15 % of WT heme binding | % of WT heme binding [2]: ~ 90 % of WT heme binding
